# In ChEMBL document CHEMBL1148272, “3D-QSAR studies on PU3 analogues by comparative molecular field analysis” (Bioorg Med Chem Lett, 2004):
# Test system: MCF7
# Experiment: Antiproliferative activity evaluated against MCF-7 cell line
# Assay type: functional, cell-based
# Conditions: Homo sapiens
smiles,measurement,value
C=CCCn1c(Cc2cc(OC)c(OC)c(OC)c2)nc2c(N)nc(F)nc21,IC50,33.1 µM
COc1cc(Cc2nc3c(N)ncnc3n2CC2CCCCC2)cc(OC)c1OC,IC50,39.8 µM
COc1cc(Cc2nc3c(N)ncnc3n2CC(C)C)cc(OC)c1OC,IC50,97.7 µM
CCCn1c(Cc2cc(OC)c(OC)c(OC)c2)nc2c(N)nc(F)nc21,IC50,25.1 µM
CCC(CC)Cn1c(Cc2cc(OC)c(OC)c(OC)c2)nc2c(N)ncnc21,IC50,158 µM
COc1cc(Cc2nc3c(N)ncnc3n2CCCC(C)C)cc(OC)c1OC,IC50,69.2 µM
CCC(C)Cn1c(Cc2cc(OC)c(OC)c(OC)c2)nc2c(N)ncnc21 (stereo not given),IC50,61.7 µM
CCCCn1c(Cc2cc(OC)c(OC)c(OC)c2)nc2c(N)nc(F)nc21,IC50,24 µM
CCn1c(Cc2cc(OC)c(OC)c(OC)c2)nc2c(N)ncnc21,IC50,79.4 µM
COc1cc(Cc2nc3c(N)nc(F)nc3n2CCOC(C)C)cc(OC)c1OC,IC50,15.8 µM
C#CCCCn1c(Cc2cc(OC)c(OC)c(OC)c2Cl)nc2c(N)nc(F)nc21,IC50,2 µM
CC[C@H](C)Cn1c(Cc2cc(OC)c(OC)c(OC)c2)nc2c(N)nc(F)nc21,IC50,43.7 µM
CC/C=C\Cn1c(Cc2cc(OC)c(OC)c(OC)c2)nc2c(N)ncnc21,IC50,64.6 µM
CCCCn1c(Cc2cc(OC)c(OC)c(OC)c2)nc2c(N)ncnc21,IC50,50.1 µM
COc1cc(Cc2nc3c(N)ncnc3n2C)cc(OC)c1OC,IC50,70.8 µM
COc1cc(Cc2nc3c(N)nc(F)nc3n2CCOC(C)C)c(Cl)c(OC)c1OC,IC50,5.37 µM
CC/C=C/Cn1c(Cc2cc(OC)c(OC)c(OC)c2)nc2c(N)ncnc21,IC50,46.8 µM
COCCn1c(Cc2cc(OC)c(OC)c(OC)c2)nc2c(N)ncnc21,IC50,64.6 µM
C#CCCn1c(Cc2cc(OC)c(OC)c(OC)c2)nc2c(N)nc(F)nc21,IC50,25.1 µM
COc1cc(Cc2nc3c(N)ncnc3n2CCOC(C)C)cc(OC)c1OC,IC50,38.9 µM
C#CCCCn1c(Cc2cc(OC)c(OC)c(OC)c2)nc2c(N)nc(F)nc21,IC50,11 µM
CCCCn1c(Cc2cc(OC)c(OC)c(OC)c2Cl)nc2c(N)ncnc21,IC50,19.1 µM
COc1cc(Cc2nc3c(N)ncnc3n2CC2CC2)cc(OC)c1OC,IC50,75.9 µM
C=CCCCn1c(Cc2cc(OC)c(OC)c(OC)c2)nc2c(N)nc(F)nc21,IC50,44.7 µM
CCCCn1c(Cc2cc(OC)c(OC)c(OC)c2Br)nc2c(N)ncnc21,IC50,25.1 µM
COc1cc(Cc2nc3c(N)ncnc3n2CC(OC)OC)cc(OC)c1OC,IC50,72.4 µM
COc1cc(Cc2nc3c(N)ncnc3n2CC2CCCO2)cc(OC)c1OC (stereo not given),IC50,91.2 µM
COc1cc(Cc2nc3c(N)ncnc3n2CC2(C)CC2)cc(OC)c1OC,IC50,112 µM
COc1cc(Cc2nc3c(N)nc(F)nc3n2CC2CCC2)cc(OC)c1OC,IC50,40.7 µM
C#CCCCn1c(Cc2cc(OC)c(OC)c(OC)c2)nc2c(N)ncnc21,IC50,24 µM
C=CCCn1c(Cc2cc(OC)c(OC)c(OC)c2)nc2c(N)ncnc21,IC50,40.7 µM
CC#CCCn1c(Cc2cc(OC)c(OC)c(OC)c2)nc2c(N)nc(F)nc21,IC50,37.2 µM
CCCCn1c(Cc2c(Br)c(OC)c(OC)c(OC)c2Br)nc2c(N)ncnc21,IC50,30.2 µM
C/C=C/Cn1c(Cc2cc(OC)c(OC)c(OC)c2)nc2c(N)ncnc21,IC50,51.3 µM
CCCn1c(Cc2cc(OC)c(OC)c(OC)c2)nc2c(N)ncnc21,IC50,46.8 µM
COc1cc(Cc2nc3c(N)nc(F)nc3n2CC2CCCO2)cc(OC)c1OC (stereo not given),IC50,22.9 µM
CCCCCn1c(Cc2cc(OC)c(OC)c(OC)c2)nc2c(N)ncnc21,IC50,61.7 µM
COCCn1c(Cc2cc(OC)c(OC)c(OC)c2)nc2c(N)nc(F)nc21,IC50,64.6 µM
COc1cc(Cc2nc3c(N)ncnc3n2CC2CCC2)cc(OC)c1OC,IC50,45.7 µM
CCCCCn1c(Cc2cc(OC)c(OC)c(OC)c2)nc2c(N)nc(F)nc21,IC50,36.3 µM
